Values belong to the compound of their own block, whether it stands above or below them.
Tests used:
[1] = system: hind limb blood flow in rats anesthetized with pentobarbital; assay: Blood flow increasing action in vivo (hind limb blood flow, anesthetized rats); design: species or system Wistar male rats; conditions: oral, 2 hours after administration, effective when blood flow rate 130% or more of solvent group
Method: The hind limb blood flow increasing action in rats anesthetized with pentobarbital was confirmed by the following test method.
Wistar male rats, 11- to 14-week (Japan SLC, Inc.) were used. An administration liquid was prepared by adding N,N-dimethyl formamide, Polyethylene Glycol 400, TWEEN 80, a 0.5% methyl cellulose aqueous solution, a 0.5 M aqueous sodium hydrogen carbonate solution, and 0.1 M hydrochloric acid to the test compound and dissolving the Example compound in an appropriate manner depending on the compound. The prepared administration liquid was orally administered, and 2 hours later, the hind limb blood flow increasing action was evaluated under anesthesia with intraperitoneally administration of 60 mg/kg of pentobarbital The hind limb blood flow was measured using a laser blood flow imaging device (PIM II Integral). By taking the average blood flow rate of a group with the administration of a solvent as 100%, the compound was evaluated to be effective when the blood flow rate was 130% or more by the administration of the compound.

[2] = target: human purified sGC (heterodimer of sGCα1 and sGCβ1) (Homo sapiens (Human), UniProt Q02108+Q02153); assay: sGC activation test (cGMP produced, HTRF); format: biochemical; conditions: maximum activity of Preparation Example 200 compound (maximum 100 μM) taken as 100%; with SNP; read-out: EC50 (concentration giving 50% of maximum activity)
Sequence of human purified sGC (heterodimer of sGCα1 and sGCβ1) (Q02108 whole entry): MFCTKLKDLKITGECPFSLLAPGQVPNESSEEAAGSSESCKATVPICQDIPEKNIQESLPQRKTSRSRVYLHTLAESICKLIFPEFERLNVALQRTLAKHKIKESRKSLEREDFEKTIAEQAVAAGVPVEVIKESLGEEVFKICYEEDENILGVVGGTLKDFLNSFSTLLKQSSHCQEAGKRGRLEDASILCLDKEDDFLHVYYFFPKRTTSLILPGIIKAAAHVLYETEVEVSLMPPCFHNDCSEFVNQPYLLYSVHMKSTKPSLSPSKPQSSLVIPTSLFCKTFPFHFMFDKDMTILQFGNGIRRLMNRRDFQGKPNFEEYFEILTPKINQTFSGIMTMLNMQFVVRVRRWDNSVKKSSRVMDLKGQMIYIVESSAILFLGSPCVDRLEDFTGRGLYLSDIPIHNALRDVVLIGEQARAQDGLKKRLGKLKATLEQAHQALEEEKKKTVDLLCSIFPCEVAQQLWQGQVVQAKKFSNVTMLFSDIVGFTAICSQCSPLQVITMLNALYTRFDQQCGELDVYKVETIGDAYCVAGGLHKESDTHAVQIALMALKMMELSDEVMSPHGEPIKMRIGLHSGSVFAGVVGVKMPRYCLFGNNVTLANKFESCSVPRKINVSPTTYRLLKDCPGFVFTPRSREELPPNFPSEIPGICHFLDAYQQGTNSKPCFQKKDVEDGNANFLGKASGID
Sequence of human purified sGC (heterodimer of sGCα1 and sGCβ1) (Q02153 whole entry): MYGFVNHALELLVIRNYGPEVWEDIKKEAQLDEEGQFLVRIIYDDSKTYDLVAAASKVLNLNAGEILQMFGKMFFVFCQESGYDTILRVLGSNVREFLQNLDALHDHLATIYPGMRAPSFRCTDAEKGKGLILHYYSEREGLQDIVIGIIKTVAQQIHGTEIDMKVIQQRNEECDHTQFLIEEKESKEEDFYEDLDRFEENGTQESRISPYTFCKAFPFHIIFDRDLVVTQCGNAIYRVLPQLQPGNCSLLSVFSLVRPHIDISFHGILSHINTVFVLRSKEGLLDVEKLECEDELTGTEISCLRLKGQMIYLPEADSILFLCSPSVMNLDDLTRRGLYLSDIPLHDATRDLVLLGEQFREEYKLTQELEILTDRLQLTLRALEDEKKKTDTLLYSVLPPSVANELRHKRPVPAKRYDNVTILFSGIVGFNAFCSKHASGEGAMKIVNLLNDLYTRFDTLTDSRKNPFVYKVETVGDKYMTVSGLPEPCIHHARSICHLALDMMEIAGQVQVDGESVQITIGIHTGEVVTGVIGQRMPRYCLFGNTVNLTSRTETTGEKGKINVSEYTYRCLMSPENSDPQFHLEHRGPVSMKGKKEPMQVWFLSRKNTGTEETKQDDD
Method: The activity of sGC was evaluated by measuring the amount of cGMP produced by human purified sGC.
Using an sGCα 1 gene (NCBI accession No. BC028384.2) and an sGCβ1 gene (NCBI accession No. BC047620.1), an N-terminal FLAG tag-fused sGCα1 and an sGCβ1 expression baculovirus were prepared. These viruses were transfected into insect cells Sf9 (Cat. No. 11496-015, Gibco) to express a protein. From the cell lysates of the insect cells, heterodimers of the N-terminal FLAG tag-fused sGCα1 and sGCβ1 were purified with an M2 Affinity Gel (Sigma-Aldrich, Inc.) to obtain a human sGC.
An Example compound was dissolved in DMSO and diluted 20-fold with ultrapure water. 2 μL of the diluted Example compound solution (maximum concentration of 100 μM), 2 μL of a substrate solution [0.5 μM triethanolamine buffer solution, 0.03 μM dithiothreitol, 0.01 μM GTP, 0.04 μM MgCl2, and 0.03 μM sodium nitroprusside (SNP)], and 6 μL of a human enzyme suspension were added to 384-well plates (manufactured by Greiner Bio-One), and incubated at room temperature for one hour. The measurement of the amount of cGMP was carried out, using an HTRF reagent (Cisbio).
The sGC activation action of the Example compound was calculated as an Example compound concentration which gives 50% of a maximum activity (EC50), in which the maximum activity by the addition of a compound shown in Preparation Example 200, 8-(cyclohexylmethoxy)-N-[(1R)-2-hydroxy-1-phenylethyl]-2-methylimidazo[1,2-a]pyridine-3-carboxamide hydrochloride (maximum 100 μM), is taken as 100%. Further, the maximum activity of sGC with the addition of 8-(cyclohexylmethoxy)-N-[(1R)-2-hydroxy-1-phenylethyl]-2-methylimidazo[1,2-a]pyridine-3-carboxamide hydrochloride is 10-fold or more relative to the sGC activation without the addition of the compound, and it is recognized that the compound has a good sGC activating action. […] The test results of some Example compounds that are the compounds of the formula (I) of the present invention are shown below. Further, in Tables, Ex. represents Example number.

[3] = system: average blood pressure of rats; assay: Measurement of antihypertensive effect in vivo; design: species or system Wistar male rats; conditions: oral
Method: As the animals, Wistar male rats, 13- to 18-week (Japan SLC, Inc.) were used. Three days prior to administration of a test compound, a cannula (PE-50, Becton, Dickinson and Company, Japan) filled with heparin physiological saline (200 U/mL, Ajinomoto Pharmaceuticals Co., Ltd.) was inserted and placed in the common carotid artery under anesthesia with intraperitoneal administration of 60 mg/kg of pentobarbital. The other end of the cannula was subcutaneously exposed to the back of the neck. After the recovery period, the placed cannula was connected to a pressure transducer (Life Kit DTS DX-100, Nihon Kohden Corporation) to record the blood pressure waveform through an amplifier (AP-641G, Nihon Kohden Co., Ltd.) and PowerLab (ML870 PowerLab8/30 (AD Instruments Japan)). The heart rate was calculated using a heart rate measuring unit (AT-601G, Nihon Kohden Co., Ltd.). After stabilization of the blood pressure, the test compound was orally administered one time to measure the blood pressure and the heart rate over time. The test compounds were administered by appropriately adding N,N-dimethylformamide, Polyethylene Glycol 400, TWEEN 80, a 0.5% aqueous methylcellulose solution, and a 0.5 M aqueous sodium hydrogen carbonate solution, and 0.1 M hydrochloric acid therein according to the compounds and dissolving it.
Further, the administration doses in Tables represent the administration doses for oral administration, and for example, 3 means 3 mg/kg. Further, the blood pressure reduction represents a maximum change value from the value before administration in the average blood pressure, and for example, −63 indicates reduction by 63 mmHg.

Compound: Cc1nnc([C@](C)(CO)NC(=O)c2c(C)nc3c(OCc4c(F)cccc4F)cccn23)o1 [Example 117, 8-[(2,6-difluorobenzyl)oxy]-N-[(2S)-1-hydroxy-2-(5-methyl-1,3,4-oxadiazol-2-yl)propan-2-yl]-2-methylimidazo[1,2-a]pyridine-3-carboxamide]
hind limb blood flow increasing action ([1]; 0.1 mg/kg): exhibited a blood flow increasing action | EC50 [2]: 5.5 µM | Blood pressure reduction (maximum change from value before administration in average blood pressure) ([3]; single dose 1 mg/kg): −35 mmHg

Compound: Cc1nc2c(OCc3c(F)cccc3F)cccn2c1C(=O)NC(CO)(CO)c1nnn(C(F)F)n1 [Example 96]
hind limb blood flow increasing action ([1]; 0.3 mg/kg): exhibited a blood flow increasing action | EC50 [2]: 3.4 µM | Blood pressure reduction (maximum change from value before administration in average blood pressure) ([3]; single dose 1 mg/kg): −21 mmHg

Compound: CCn1nnc(C(C)(CO)NC(=O)c2c(C)nc3c(OCc4c(F)cccc4F)cccn23)n1 (centres unmarked) [Example 8, 8-[(2,6-difluorobenzyl)oxy]-N-[2-(2-ethyl-2H-tetrazol-5-yl)-1-hydroxypropan-2-yl]-2-methylimidazo[1,2-a]pyridine-3-carboxamide]
hind limb blood flow increasing action ([1]; 3 mg/kg): exhibited a blood flow increasing action | EC50 [2]: 5.7 µM | Blood pressure reduction (maximum change from value before administration in average blood pressure) ([3]; single dose 3 mg/kg): −29 mmHg

Compound: Cc1nnc([C@](C)(CO)NC(=O)c2c(C)nc3c(OCc4c(F)cccc4F)cccn23)s1 [Example 118, 8-[(2,6-difluorobenzyl)oxy]-N-[(2S)-1-hydroxy-2-(5-methyl-1,3,4-thiadiazol-2-yl)propan-2-yl]-2-methylimidazo[1,2-a]pyridine-3-carboxamide]
hind limb blood flow increasing action ([1]; 1 mg/kg): exhibited a blood flow increasing action | EC50 [2]: 1.1 µM | Blood pressure reduction (maximum change from value before administration in average blood pressure) ([3]; single dose 3 mg/kg): −61 mmHg

Compound: Cc1nc(C(C)(CO)NC(=O)c2c(C)nc3c(OCc4c(F)cccc4F)cccn23)no1 (centres unmarked) [Example 41]
hind limb blood flow increasing action ([1]; 0.3 mg/kg): exhibited a blood flow increasing action | EC50 [2]: 5.3 µM

Compound: Cc1cnc(C(CO)(CO)NC(=O)c2c(C)nc3c(OCc4c(F)cccc4F)cccn23)s1 [Example 72]
hind limb blood flow increasing action ([1]; 1 mg/kg): exhibited a blood flow increasing action | EC50 [2]: 2.7 µM

Compound: Cc1nc2c(OCc3c(F)cccc3F)cccn2c1C(=O)NC(CO)(CO)c1ccc(F)cc1 [Example 54]
hind limb blood flow increasing action ([1]; 3 mg/kg): exhibited a blood flow increasing action | EC50 [2]: 2.7 µM | Blood pressure reduction (maximum change from value before administration in average blood pressure) ([3]; single dose 3 mg/kg): −56 mmHg

Compound: Cc1nnc(C(C)(CO)NC(=O)c2c(C)nc3c(OCc4c(F)cccc4F)cccn23)s1 (centres unmarked) [Example 37]
hind limb blood flow increasing action ([1]; 1 mg/kg): exhibited a blood flow increasing action | EC50 [2]: 7.1 µM

Compound: Cc1noc(C(C)(CO)NC(=O)c2c(C)nc3c(OCc4c(F)cccc4F)cccn23)n1 (centres unmarked) [Example 39]
hind limb blood flow increasing action ([1]; 1 mg/kg): exhibited a blood flow increasing action | EC50 [2]: 4.6 µM

Compound: Cc1nc2c(OCc3c(F)cccc3F)cccn2c1C(=O)NC(C)(CO)c1ccn(C)n1 (centres unmarked) [Example 36]
hind limb blood flow increasing action ([1]; 1 mg/kg): exhibited a blood flow increasing action | EC50 [2]: 11 µM

Further compounds by falling EC50 [2], results first:

EC50 [2]: 2.6 µM
Compound: Cc1ncc(C(C)(CO)NC(=O)c2c(C)nc3c(OCc4c(F)cccc4F)cccn23)s1 (centres unmarked) [Example 2, 8-[(2,6-difluorobenzyl)oxy]-N-[1-hydroxy-2-(2-methyl-1,3-thiazol-5-yl)propan-2-yl]-2-methylimidazo[1,2-a]pyridine-3-carboxamide]
hind limb blood flow increasing action ([1]; 3 mg/kg): exhibited a blood flow increasing action | Blood pressure reduction (maximum change from value before administration in average blood pressure) ([3]; single dose 3 mg/kg): −56 mmHg

EC50 [2]: 2.5 µM
Compound: Cc1cnc(C(C)(CO)NC(=O)c2c(C)nc3c(OCc4c(F)cccc4F)cccn23)o1 (centres unmarked) [Example 38]
hind limb blood flow increasing action ([1]; 1 mg/kg): exhibited a blood flow increasing action

EC50 [2]: 2.2 µM
Compound: Cc1nc2c(OCc3c(F)cccc3F)cccn2c1C(=O)NC(C)(CO)c1ccc(F)c(CO)c1 (centres unmarked) [Example 52]
hind limb blood flow increasing action ([1]; 3 mg/kg): exhibited a blood flow increasing action

EC50 [2]: 0.73 µM
Compound: Cc1nc2c(OCc3c(F)cccc3F)cccn2c1C(=O)N[C@@](C)(CO)c1nnn(C(F)F)n1 [Example 114, 8-[(2,6-difluorobenzyl)oxy]-N-{(2R)-2-[2-(difluoromethyl)-2H-tetrazol-5-yl]-1-hydroxypropan-2-yl}-2-methylimidazo[1,2-a]pyridine-3-carboxamide]
hind limb blood flow increasing action ([1]; 0.03 mg/kg): exhibited a blood flow increasing action | Blood pressure reduction (maximum change from value before administration in average blood pressure) ([3]; single dose 0.3 mg/kg): −35 mmHg

EC50 [2]: 0.72 µM
Compound: Cc1nc2c(OCc3c(F)cccc3F)cccn2c1C(=O)N[C@@](C)(CO)c1ccccc1 [Example 9]
hind limb blood flow increasing action ([1]; 0.3 mg/kg): exhibited a blood flow increasing action | Blood pressure reduction (maximum change from value before administration in average blood pressure) ([3]; single dose 3 mg/kg): −63 mmHg

Source: US9278968B2, “Imidazopyridine compounds” (ASTELLAS PHARMA INC., priority 2012, dated 2016)
